# PubChem BioAssay (NCI)
# “And” between values parts separate entries of the source, which are not always exact repeats. Identical values can stand only once.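 Briefly, cells in 96-well plates were exposed to five compound concentrations for 48 h, and endpoints were estimated by linear interpolation. Here, GI50 denotes the concentration required for 50% inhibition of growth. Definition used: TGI = concentration required for complete inhibition of growth.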
# How the values were obtained:
# Assay in all cases: growth of human tumour cells (NCI), 48 h
# HL-60(TB) leukemia = system: HL-60(TB) leukemia
# K-562 leukemia = system: K-562 leukemia
# MCF7 breast = system: MCF7 breast
# MDA-MB-231 breast = system: MDA-MB-231 breast
# NCI-H460 lung = system: NCI-H460 lung
# OVCAR-5 ovarian = system: OVCAR-5 ovarian
# SF-539 CNS = system: SF-539 CNS
# SN12C renal = system: SN12C renal
# SNB-75 CNS = system: SNB-75 CNS
# UO-31 renal = system: UO-31 renal
SMILES,TGI (HL-60(TB) leukemia),TGI (K-562 leukemia),TGI (MCF7 breast) [µM],TGI (MDA-MB-231 breast) [µM],TGI (NCI-H460 lung) [µM],TGI (OVCAR-5 ovarian) [µM],TGI (SF-539 CNS),TGI (SN12C renal),TGI (SNB-75 CNS),TGI (UO-31 renal) [µM],GI50 (HL-60(TB) leukemia) [µM],GI50 (K-562 leukemia) [µM],GI50 (MCF7 breast) [µM],GI50 (MDA-MB-231 breast) [µM],GI50 (NCI-H460 lung) [µM],GI50 (OVCAR-5 ovarian) [µM],GI50 (SF-539 CNS) [µM],GI50 (SN12C renal) [µM],GI50 (SNB-75 CNS) [µM],GI50 (UO-31 renal) [µM]
COc1cc2ccc(/C=C\[N+](=O)[O-])cc2cc1OC,5.07 µM,> 24.6 µM,7.06,9.02,> 56.4,30.3,4.91 µM,6.3 µM,5.76 µM,3.36,–,–,–,–,–,–,–,–,–,–
O=C(O)C(/C=C/c1ccccc1)c1ccccc1 (configuration not stated),75.1 µM,> 100 µM,> 100,> 100,> 100,> 100,> 100 µM,> 100 µM,> 100 µM,> 100,–,–,–,–,–,–,–,–,–,–
CC(C)N(Cc1ccccc1)c1c(S)ssc1=S,3.12 µM,3.81 µM,5.02,5.49,10.7,> 100,10.4 µM,19.7 µM,26.9 µM,70.6,1.16,0.941,1.57,1.77,2.33,3.56,3.06,2.42,2.98,3.6
COc1ccc(-c2cn(-c3cc(OC)c(OC)c(OC)c3)c(SCc3ccccc3)n2)cc1OC,> 100 µM,> 100 µM,> 100,> 100,> 100,> 100,> 100 µM,> 100 µM,> 100 µM,> 100,> 100,> 100,> 100,> 100,> 100,> 100,> 100,> 100,82.3,45.5
CCC1C2Cc3ccc(O)cc3C1(CC)CCN2C (configuration not stated),> 100 µM,> 100 µM,> 100,> 100,> 100,> 100,> 100 µM,> 100 µM,> 100 µM,> 100,–,–,–,–,–,–,–,–,–,–
COc1cc(CSc2nc3ccc(C)cc3c(=O)n2-c2ccccc2)cc(OC)c1OC,> 100 µM,> 100 µM,> 100,> 100,> 100,> 100,9.52 µM,> 100 µM,2.98 µM,> 100,1.72,0.534,0.548,2.92,2.3,6.26,2.08,4.56,0.328,3.67
O=C(CCCCCCCCC(=O)N/N=C\c1ccccc1O)N/N=C\c1ccccc1O,0.687 µM,27.8 µM,> 100,32.2,1.47,> 90.3,17.4 µM,> 42.4 µM,15.3 µM,3.9,0.203,0.398,1.99,0.225,0.27,3.35,0.452,0.7,1.82,0.197
Nc1c(C(=O)c2cccc(-c3ccncc3)c2)cnn1-c1ccc(F)cc1F,> 25 µM,> 25 µM,> 25,> 25,> 25,> 25,> 25 µM,> 25 µM,> 25 µM,> 25,5.57,2.57,3.08,15.2,5.2,> 25,> 16.4,12.1,4.99,8.96
O=C1Nc2ccccc2/C1=C/C(=O)c1coc2c1C(=O)c1ccccc1C2=O,> 100 µM,> 100 µM,> 100,> 100,> 100,> 100,> 100 µM,> 100 µM,> 100 µM,> 100,> 100,> 100,74.7,> 100,> 100,> 100,> 100,> 100,18.9,70.4
C#Cc1c(F)ccc2cc(O)cc(-c3ncc4c(N5CC6CCC(C5)N6)nc(OC[C@@]56CCCN5C[C@H](F)C6)nc4c3F)c12,26.6 µM,> 65.5 µM,24,13.7,21.2,13.5,27.2 µM,31 µM,46.4 µM,> 50.2,8.23,8.12,8.48,2.36,6.87,2.51,14,14.8,17.1,> 34.8
Cc1cc2c(cc1C)N(C(=O)CCl)CC(=O)N2,5.74 µM,29.4 µM,10.9,15.9,14.4,5.33,10.9 µM,12 µM,20.8 µM,3.24,2.69,3.39,2.45,4.19,3.66,2.53,3.44,3.44,3.39,1.74
CC(C)(C)c1ccc(Oc2nccc(-c3c(-c4ccc(F)cc4)ncn3C3CCNCC3)n2)cc1,9.1 µM,4.7 µM,7.77,7.39,8.21,7.76,8.03 µM,7.06 µM,6.15 µM,6.61,4.64,0.849,3.86,3.87,3.91,4.26,4.38,3.65,2.89,2.61
CC1CCC(NC(=O)N(CCCl)N=O)CC1 (configuration not stated),24.1 µM and 72.2 µM,28.9 µM and 119 µM,110,91.2,100,105,43.8 µM and 62.3 µM,41.7 µM and 81.4 µM,74.4 µM and 66.7 µM,92,8.98,0.122,–,–,28,–,18.9,19.1,27.3,61.2
